This note sets out measurements from patent publication US8486991B2, “Enantiomerically pure phosphoindoles as HIV inhibitors” (Idenix Pharmaceuticals, Inc., priority 2006, dated 2013).

Data set [1] has as its system stimulated human primary blood mononuclear cells (PBMC). As to the kind of experiment: in vitro. The conditions noted are these: 3 days. Here is the method:
Cell viability was determined via MTT staining.

Data set [2] concerns HIV-1 RT K103N mutant enzyme. Format: biochemical. As to conditions: Table 2; mutant vs wild-type. The source says: In Vitro Antiviral Activity Against Additional Mutant HIV RT Enzymes
The next data set addresses CYP2D6 (Homo sapiens, UniProt P10635). The data set is described as follows: Human liver microsomal CYP450 inhibition, CYP2D6. The conditions noted are these: for IC50, CYP2D6: human liver microsomes.
The test system of data set [3] is CYP1A2 (activation of AhR in CYP1A2-DRE cells). As to the kind of experiment: CYP1A2 induction screen in CYP1A2-DRE cells. Format: cell-based, human. As to conditions: extent compared with TCDD, omeprazole, 2-acetylaminofluorene. An excerpt: The potential for in vitro induction of CYP3A4 was screened in DPX2 cells. The DPX2 cell line is a derivative of a human hepatocellular carcinoma cell line (HepG2) transformed with the human pregnane x receptor (PXR) and a reporter gene vector containing the enhancer region of CYP3A4. The potential for in vitro induction of CYP1A2 was screened in CYP1A2-DRE cells. The CYP1A2-DRE cell line is a stably transformed HepG2 cells with dioxin response elements (DRE) and reporter gene containing CYP1A2 promoter elements. The extent of CYP3A4 induction was determined by comparing the activation of PXR obtained with test article to that obtained with rifampicine (potent inducer), mifepristone (moderate inducer) and androstanol (weak inducer). The extent of CYP1A2 induction was determined by comparing the activation of the aryl hydrocarbon receptor (AhR) obtained with test article to that obtained with TCDD (potent inducer), omeprazole (moderate inducer), and 2-acetylaminofluorene (weak inducer).

The nature of data set [4]: In vivo pharmacokinetics, rats. On the set-up: species or system rat. As to conditions: plasma. As to the method:
All animals received a single oral or intravenous dose of compound in either polyethylene glycol 400 (PEG400) or a mixture of 10% ethanol (EtOH), 10% dimethylacetamine (DMA) and 80% PEG400 at the indicated dose level. Plasma concentration data were acquired using sensitive and specific LC-MS/MS methods. Pharmacokinetic data from the toxicity study included aspects of gender differences, variability and exposure.
Blood samples (1.5-2.5 mL) were collected in heparinized tubes at 0 (pre-dose), 5 (IV only), 10, 20, 30 min, 1, 2, 4, 6, 8, 12 (PO only) and 24 hr after dosing. Plasma was separated and stored at −70° C. until analysis.
Concentrations of unlabeled compound I and compound III within plasma samples and excreta from rat, dog and monkey PK studies were identified through high performance liquid chromatographic (HPLC) methods that incorporated tandem mass spectrometric detection (LC-MS/MS).
The absolute oral bioavailability was determined in pharmacokinetic by comparison of AUC values of parent compound following single intravenous and oral doses of in rats (compound III only), dogs and monkeys.

The structures appear in SMILES notation. pIC50: −log10 of the molar value. Entries after “also recorded” stand apart in the source; their conditions may differ. Where two headings read alike, the source gives them in different places.

Chain of CYP2D6 (P10635 whole entry): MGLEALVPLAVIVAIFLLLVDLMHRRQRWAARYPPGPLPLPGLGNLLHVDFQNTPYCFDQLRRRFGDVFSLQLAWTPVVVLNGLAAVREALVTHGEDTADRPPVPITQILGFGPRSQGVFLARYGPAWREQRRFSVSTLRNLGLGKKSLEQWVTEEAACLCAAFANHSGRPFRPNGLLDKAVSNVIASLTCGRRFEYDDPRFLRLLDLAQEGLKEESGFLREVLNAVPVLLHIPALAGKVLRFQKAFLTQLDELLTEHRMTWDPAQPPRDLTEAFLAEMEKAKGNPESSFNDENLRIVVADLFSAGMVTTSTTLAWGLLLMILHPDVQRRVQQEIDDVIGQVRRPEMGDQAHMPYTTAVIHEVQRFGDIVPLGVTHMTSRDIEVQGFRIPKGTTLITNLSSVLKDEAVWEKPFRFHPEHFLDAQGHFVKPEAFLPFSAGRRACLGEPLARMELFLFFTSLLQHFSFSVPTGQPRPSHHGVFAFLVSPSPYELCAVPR
Method for CYP2D6: In addition, the type of inhibition was also evaluated.
Enzyme kinetic studies of cytochrome P450 isozyme inhibition were conducted using human liver microsomes.

Regarding `CO[P@](=O)(c1cc(C)cc(/C=C/C#N)c1)c1c(C(N)=O)[nH]c2ccc(Cl)c(F)c12` [Compound I, (2-Carbamoyl-5-chloro-4-fluoro-1H-indol-3-yl)-[3-((E)-2-cyano-vinyl)-5-methyl-phenyl]-(R)-phosphinic acid methyl ester], the “SI values from cytotoxicity and activity data in PBMC” value in data set [1] is > 100,000. The “Fold Change, K103N” value in data set [2] came out at 3.2 ± 3.5 fold. For the same compound, on CYP2D6, the pIC50 is under 4.70 and the “IC50, CYP2D6” value is listed as “not observed”.

For `CO[P@](=O)(c1cc(C)cc(/C=C/C#N)c1)c1c(C(N)=O)[nH]c2ccc(Cl)cc12` [Compound III, (2-Carbamoyl-5-chloro-1H-indol-3-yl)-[3-((E)-2-cyano-vinyl)-5-methyl-phenyl]-(R)-phosphinic acid methyl ester], the “Induction, CYP1A2-DRE (CYP1A2)” value in data set [3] is “moderate inducers; also recorded: Not inducer (n = 1)”. Further, the Tmax in data set [4] (male, Rat, 10 mg/kg PO-Fasted, 3M, mean) was determined as 24 min. For the same compound, the bioavailability in data set [4] (male, Rat, 10 mg/kg PO-Fasted, 3M, IV 2 mg/kg, read-out: BA (absolute oral bioavailability)) was determined as 38%. In data set [4] (rat, po, text b979, (5 mg/kg), read-out: oral bioavailability in rats, exploratory PK studies), the bioavailability is 38%. On CYP2D6, the pIC50 was under 4.70 and the “IC50, CYP2D6” value is listed as “not observed”.

As a reminder, the pIC50 is −log10 of the IC50, conventionally taken in molar units. The Tmax is the time at which the peak concentration occurs. For orientation: bioavailability means the share of a dose that reaches the circulation, judged against a reference dose that is usually intravenous.
